Measured values reported in US20230390248A1, “COMPOSITION FOR ENHANCING TUMOR PENETRATION OF ANTICANCER DRUG, COMPRISING LOSARTAN AS ACTIVE INGREDIENT, AND USE THEREOF” (priority 2020, published 2023).

Legend:
Type in all cases: in vivo, BALB/c nude mice
hyaluronan = assay: Hyaluronan staining (alcian blue) in gastric cancer tissue; conditions: gastric cancer tumor tissue; versus control; FIG. 3B
Method: Hyaluronan staining was performed using alcian blue stain kit (Vector laboratories, Burlingame, CA 94010, Alcian Blue (pH 2.5), Stain kit, H-3501). The tissues were sectioned to a thickness of 20 μm. The sections were washed with water to remove excess OCT. Acetic acid was treated to tissue sections for 3 minutes, and then Alcian blue solution was treated at 37° C. for 30 minutes. Excess staining was removed by washing with acetic acid. It was then washed with tap water for 2 minutes and then with distilled water for 1-2 minutes. In addition, the nuclear fast red solution was treated for 5 minutes, and washing was followed with tap water and then with distilled water. The slides were dehydrated in graded alcohol and removed from xylene, and then a cover slip was mounted. The slides were visualized, and images were filmed with Olympus BX53 system microscope (Olympus, life science solution, Waltham, Massachusetts (02453)).

gastric cancer (NCI-N87) = assay: Treatment efficacy of combined RIT using losartan and ^64Cu-TRZ; conditions: compared to the control (PBS); losartan 60 mg/kg s.c. for 25 days; FIG. 5A
Method: To identify gastric cancer (NCI-N87) treatment efficacy of the combined therapy using losartan and trastuzumab, the groups were classified into ^64Cu-TRZ treated group (n=7), losartan-included ^64Cu-TRZ treated group (n=7), losartan solely treated group (n=6), TRZ solely treated group (n=6), and PBS treated group (n=8). […] Losartan was delivered subcutaneously (60 mg/kg for 25 days), and TRZ (150 μg) was injected intravenously once at the start of treatment.

collagen = assay: Masson trichrome staining of collagen in gastric cancer tissue; conditions: gastric cancer tumor tissue; versus control; FIG. 3A
Method: Masson trichrome staining was performed for histological visualization of collagen, an extracellular component, which is considered as a disorder when TRZ travels. Tumor tissues were obtained by sacrificing animals. The obtained tissues were fixed overnight in 4% paraformaldehyde and transferred to OCT compounds (Sakura Finetec, USA). The tissues were sectioned to a thickness of 40 μm. Staining was performed according to the kit protocol (Abcam (www.abcam.com) ab150686).
Bouin's Fluid was applied to each section and cultured overnight at room temperature. The slides were washed with water, cultured in Weigert's iron hematoxylin for 5 minutes, then washed with tap water, and cultured in Biebrich scarlet/acid fuchsin solution for […]. Without washing, the slides were re-cultured with aniline blue for 30 minutes. The slides were then washed with water and cultured in acetic acid for 3-5 minutes.
It was also dehydrated in graded alcohol, washed in xylene, and then mounted to a class slide using a mounting medium. The slides were visualized, and images were filmed with the Olympus BX53 system microscope (Olympus, life science solution, Waltham, Massachusetts (02453)).

For `CCCCc1nc(Cl)c(CO)n1Cc1ccc(-c2ccccc2-c2nn[nH]n2)cc1` [losartan], which “hyaluronan (alcian blue staining)” value (hyaluronan) is on record?
The value was “reduced hyaluronan”.

What about the tumor growth response (gastric cancer (NCI-N87)) of the same compound?
Its tumor growth response is “tumoricidal response”.

And the “collagen (masson trichrome staining)” value (collagen)?
The value was “reduced collagen”.
